Results published in US8541670B2, “Compositions and methods for inhibiting tumor cell growth” (priority 2007, dated 2013).
Where no end group is shown, it is not given here. red fluorescent dye = not defined here

Key:
PKA and CDK5 = test: In vivo phosphorylation of DARPP-32 at Thr-34 (PKA site) and Thr-75 (CDK5 site); set-up: species or system mouse; conditions: striatum
Method: As a striatal specific substrate for PKA and CDK5, the phosphorylation level of DARPP-32 was determined at Thr-34 (the PKA site) or at Thr-75 (the CDK5 site)(Huang, et al. (1999) supra).

[1] = system: non-proliferating neurons in primary cortical culture; test: TUNEL assay in primary cortical neuron culture; type: cell-based; conditions: 1 or 5 µM, 72-hour treatment, compared to control peptide
Method: It is now well-established that AKT protects against apoptosis through phosphorylation and inhibition of pro-apoptotic mediators such as BAD, FOXO family members and IKK-[…] (Datta, et al. (1999) Genes Dev. 13:2905-2927). […] Primary neurons were treated with DMSO, 1 µM or 5 µM of either ZaTa or the control peptide for a duration of 1, 3, 16, 24, 48 or 72 hours. The number of apoptotic cells was counted following the TUNEL assay. […] The increase in the number of apoptotic neurons following treatment with ZaTa was consistent with its potent intra-neuronal inhibition of AKT.

PI3K[…] = test: In vitro kinase assay PI3K[…]; type: biochemical; conditions: ten times higher concentration than 0.1 μM
Method: As a specific substrate, the phosphorylation level of GSK-3[…] at Ser-9 was also evaluated. […] The decrease was specific to the AKT phosphorylation site on GSK-3[…] at Ser-9, since a change in the phosphorylation level of GSK-3[…] at Tyr-216 or GSK-3[…] at Tyr-279 was not observed. Moreover, the in vivo reduction of the phosphorylation of AKT substrates was more obvious at the injection site, since a significant change in the phosphorylation of AKT substrates in the frontal cortex or cerebellum between the two hemispheres was not observed. […] To test the specificity/selectivity of ZaTa as the inhibitor of AKT1 versus the other major kinases, a series of in vitro kinase assays was performed at IC50 for AKT1 and at ten times higher concentrations. A panel of the following 32 kinases was first tested in vitro using the active form of each kinase and a specific substrate: AKT2, AKT3, PKA, PKC[…], PKC, PI3K[…], PI3K[…], PI3K, SGK, PAK2, PAK3, SAPK2/p38, Abl, CaMKII, CDK1/cyclinB, CDK5/p35, CK1, CK2, CSK, GSK3[…], GSK3[…], JNK1[…]1, MAPK1, p70S6K, PDGFR[…], PDGFR[…], PDK1, PKG1[…], TrkB, JAK2, JAK3, and Syk. […] However, at ten times higher concentration, ZaTa inhibited AKT2 (63%), PI3K[…] (72%), p70S6K (64%), SGK (73%), PAK3 (83%), JAK3 (79%), TrkB (84%), and Abl (42%). […]

JAK3 = molecular target: T1, JAK3 (Homo sapiens, UniProt P52333); test: Cell-based kinase assay, phosphorylation of intracellular substrate (Tyr-1022/1023 JAK1)
T1 construct: endogenous in cells
T1 sequence (P52333 1-1124): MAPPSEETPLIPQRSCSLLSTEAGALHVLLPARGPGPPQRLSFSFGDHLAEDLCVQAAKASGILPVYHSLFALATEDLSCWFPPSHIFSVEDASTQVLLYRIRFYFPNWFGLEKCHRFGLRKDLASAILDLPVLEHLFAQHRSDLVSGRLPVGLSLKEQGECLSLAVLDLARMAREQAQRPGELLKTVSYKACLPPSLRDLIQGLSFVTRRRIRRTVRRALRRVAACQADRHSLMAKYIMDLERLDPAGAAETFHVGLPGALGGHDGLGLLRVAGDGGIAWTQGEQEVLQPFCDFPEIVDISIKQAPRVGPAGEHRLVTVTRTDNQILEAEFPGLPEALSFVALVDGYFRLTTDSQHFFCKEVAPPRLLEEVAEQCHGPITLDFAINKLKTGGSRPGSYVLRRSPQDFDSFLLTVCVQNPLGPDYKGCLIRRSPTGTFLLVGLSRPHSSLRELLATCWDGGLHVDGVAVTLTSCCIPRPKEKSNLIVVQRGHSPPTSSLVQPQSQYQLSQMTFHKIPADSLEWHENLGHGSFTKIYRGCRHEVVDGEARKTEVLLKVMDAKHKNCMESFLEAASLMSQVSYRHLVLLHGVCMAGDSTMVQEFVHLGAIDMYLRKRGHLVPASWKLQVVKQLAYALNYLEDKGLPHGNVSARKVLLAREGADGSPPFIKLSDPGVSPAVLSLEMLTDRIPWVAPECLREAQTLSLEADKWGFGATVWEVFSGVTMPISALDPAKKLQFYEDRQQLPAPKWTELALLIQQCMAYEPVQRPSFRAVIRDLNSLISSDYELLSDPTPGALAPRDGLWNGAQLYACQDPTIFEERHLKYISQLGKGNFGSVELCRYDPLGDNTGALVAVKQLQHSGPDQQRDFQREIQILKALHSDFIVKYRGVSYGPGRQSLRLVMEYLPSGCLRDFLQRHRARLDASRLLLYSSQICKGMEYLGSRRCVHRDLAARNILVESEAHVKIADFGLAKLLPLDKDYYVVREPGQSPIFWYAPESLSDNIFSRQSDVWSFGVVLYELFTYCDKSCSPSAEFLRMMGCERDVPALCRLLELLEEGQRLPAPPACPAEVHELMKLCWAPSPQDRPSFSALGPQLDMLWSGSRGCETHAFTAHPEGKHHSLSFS
Method: As a specific substrate, the phosphorylation level of GSK-3[…] at Ser-9 was also evaluated. […] The decrease was specific to the AKT phosphorylation site on GSK-3[…] at Ser-9, since a change in the phosphorylation level of GSK-3[…] at Tyr-216 or GSK-3[…] at Tyr-279 was not observed. Moreover, the in vivo reduction of the phosphorylation of AKT substrates was more obvious at the injection site, since a significant change in the phosphorylation of AKT substrates in the frontal cortex or cerebellum between the two hemispheres was not observed. […] To test the specificity/selectivity of ZaTa as the inhibitor of AKT1 versus the other major kinases, a series of in vitro kinase assays was performed at IC50 for AKT1 and at ten times higher concentrations. […]
Phosphorylation sites for kinases analyzed herein included Ser-235/236 S6 (a substrate for p70S6K), Tyr-207 CRKL (a substrate for Abl; Zipfel, et al. (2004) supra), Ser-241 PDK1 (a substrate for PI3K), Tyr-1022/1023 JAK1 (a substrate for JAK3; Wang, et al. (2003) supra), Ser-421 Huntingtin (a substrate for SGK; Rangone, et al. (2004) supra), Tyr-783 PLC (a substrate for TrkB; Middlemas, et al. (1994) supra), and Ser-338 cRaf (a substrate for PAK3; King, et al. (1998) supra).

Row | Substance | phosphorylation of DARPP-32 at Thr-34 or Thr-75 (PKA and CDK5) | number of TUNEL-positive cells [1] | inhibition of PI3K[…] (PI3K[…]) [%] | inhibition of JAK3 in cells (JAK3)
1 | AKRVKGRTWTLCGTPEY [ZaTa] | did not cause any significant change | marked dose-dependent increase | 72 | 
2 | labeled ZaTa: ZaTa peptide labeled with a red fluorescent dye at its N-terminus ({red fluorescent dye}-AKRVKGRTWTLCGTPEY; reading uncertain) |  |  |  | did not cause inhibition
